Test results taken from US8603527B2, “Pharmaceutical formulations of a substituted diaminopurine” (Signal Pharmaceuticals, LLC, priority 2010, dated 2013).
Like-named read-outs stand apart in the source and are kept apart here.

Key:
[1] = tested on: healthy subjects; assay: Safety in the gender, age and food study in healthy subjects; format: in vivo, human; settings: 100 mg single oral dose, all age groups, each gender, fasting and fed
Method: Group 1 (Healthy Females) and Group 3 (Elderly Males and Females): Subjects were screened within 21 days of dosing and eligible subjects were admitted to the study center on Day −1 (i.e., at least 12 hours predose) for baseline assessments and confirmation of eligibility. A single oral dose of 100 mg Compound I was administered on Day 1 following an overnight fast of at least 8 hours. Subjects were discharged from the study center the morning of Day 3 upon completion of study procedures and returned to the study center for PK blood draws and safety assessments on Days 4, 5, and 6. The end-of-study (EOS) evaluation also occurred on Day 6. Subjects returned to the study center for a follow-up visit between 7 and 10 days from EOS. Serial blood samples were collected predose and up to 120 hours postdose for the determination of plasma Compound I concentrations. Safety was monitored throughout the study; safety evaluations included AE reporting, physical examinations, vital sign measurements, ECGs, and clinical laboratory safety tests. All AEs and concomitant medications were assessed and recorded throughout the study from the time the ICF was signed through follow-up.
Group 2 (Healthy Males): Subjects in Group 2 participated in this portion of the study to evaluate food effect using a randomized, open-label, single dose, 2-period (Period 1 and Period 2), 2-sequence, 2-way crossover design. […]

[2] = Pharmacokinetics of a single ascending oral dose in healthy male subjects; format: in vivo, human; settings: for AUC(0-inf) / AUC(0-t) / Cmax / half-life / Vd/F / Tmax: human, in vivo; for Vd/F: read-out: Vz/F
Method: Methods: The study was a randomized, double-blind, placebo-controlled, single-ascending-dose trial. Forty-five healthy male subjects were enrolled into 1 of the 5 cohorts (active:placebo=7:2 per cohort). Subjects received single oral doses of 5 mg, 25 mg, 50 mg, 100 mg or 200 mg of unformulated Compound I in a capsule, or matching placebo.

[3] = single oral dose 5 mg, unformulated in capsule, healthy male subjects, geometric mean
[4] = single oral dose 25 mg, unformulated in capsule, healthy male subjects, geometric mean
[5] = single oral dose 50 mg, unformulated in capsule, healthy male subjects, geometric mean
[6] = single oral dose 100 mg, unformulated in capsule, healthy male subjects, geometric mean
[7] = single oral dose 200 mg, unformulated in capsule, healthy male subjects, geometric mean
[8] = male, single oral doses 5-200 mg

O[C@H]1CC[C@H](Nc2ncc3nc(Nc4c(F)cc(F)cc4F)n([C@H]4CCOC4)c3n2)CC1 [Compound I, 4-((9-((3S)-tetrahydro-3-furanyl)-8-((2,4,6-trifluorophenyl)amino)-9H-purin-2-yl)amino)-trans-cyclohexanol]
tolerability [1]: well tolerated | AUC(0-inf) [2, 3]: 625 ng·h/mL | AUC(0-t) [2, 3]: 567 ng·h/mL | Cmax [2, 3]: 34.7 ng/mL | half-life [2, 3]: 19.1 h | Vd/F [2, 3]: 221 L | Tmax ([2]; single oral dose 5 mg, unformulated in capsule, healthy male subjects, median (min-max), read-out: Tmax): 1.5 h | AUC(0-inf) [2, 4]: 3600 ng·h/mL | AUC(0-t) [2, 4]: 3150 ng·h/mL | Cmax [2, 4]: 163 ng/mL | half-life [2, 4]: 24.1 h | Vd/F [2, 4]: 241 L | Tmax ([2]; single oral dose 25 mg, unformulated in capsule, healthy male subjects, median (min-max), read-out: Tmax): 1.5 h | AUC(0-inf) [2, 5]: 7320 ng·h/mL | AUC(0-t) [2, 5]: 6700 ng·h/mL | Cmax [2, 5]: 367 ng/mL | half-life [2, 5]: 20.4 h | Vd/F [2, 5]: 202 L | Tmax ([2]; single oral dose 50 mg, unformulated in capsule, healthy male subjects, median (min-max), read-out: Tmax): 2 h | AUC(0-inf) [2, 6]: 13600 ng·h/mL | AUC(0-t) [2, 6]: 10800 ng·h/mL | Cmax [2, 6]: 471 ng/mL | half-life [2, 6]: 27.5 h | Vd/F [2, 6]: 293 L | Tmax ([2]; single oral dose 100 mg, unformulated in capsule, healthy male subjects, median (min-max), read-out: Tmax): 2 h | AUC(0-inf) [2, 7]: 26400 ng·h/mL | AUC(0-t) [2, 7]: 23100 ng·h/mL | Cmax [2, 7]: 1430 ng/mL | half-life [2, 7]: 25 h | Vd/F [2, 7]: 273 L | Tmax ([2]; single oral dose 200 mg, unformulated in capsule, healthy male subjects, median (min-max), read-out: Tmax): 1.5 h | AUC(0-inf) [2, 8]: 600 to 27000 ng·h/mL | AUC(0-t) [2, 8]: 500 to 24000 ng·h/mL | Cmax [2, 8]: 30 to 1500 ng/mL | half-life [2, 8]: 19 to 28 h | Tmax ([2]; male, single oral doses 5-200 mg, unformulated in a capsule, healthy males, read-out: median Tmax): 1.5 to 2 h | Vd/F [2, 8]: 200 to 300 L | urinary excretion of unchanged Compound I ([2]; over 72 hrs post-dose, single oral doses): 9-13 % of the administered dose | CLF [2, 3]: 133.36 mL/min | CLF [2, 4]: 115.58 mL/min | CLF [2, 5]: 113.88 mL/min | CLF [2, 6]: 122.89 mL/min | CLF [2, 7]: 126.02 mL/min | CLF ([2]; single oral doses 5-200 mg): 100 to 140 mL/min
